Measurements from patent US20080269237A1, “CARBAMIC ACID COMPOUNDS COMPRISING A PIPERAZINE LINKAGE AS HDAC INHIBITORS” (TOPOTARGET UK LIMITED, priority 2002, published 2008).
Where a name gives a salt, the structure may show the parent alone.

SMILES: COc1ccc2[nH]cc(CCN3CCN(C(=O)CCCCCCC(=O)NO)CC3)c2c1.O=C(O)C(=O)O
- melting point: 122 to 125 °C

SMILES: O=C(CCCCCC(=O)N1CCN(c2ccccn2)CC1)NO (as salt: oxalate) [PX118845, 7-Oxo-7-(4-pyridin-2-yl-piperazin-1-yl]-heptanoic acid hydroxyamide oxalate]
- melting point: 118 to 122 °C

SMILES: O=C(CCCCCCC(=O)N1CCN(c2ccccc2)CC1)NO [PX117402, 8-Oxo-8-(4-phenyl-piperazin-1-yl)-octanoic acid hydroxyamide]
- melting point: 134 to 136 °C

SMILES: O=C(CCCCCCC(=O)N1CCN(c2cccc(F)c2)CC1)NO [PX118859, 8-[4-(3-Fluorophenyl)-piperazin-1-yl]-8-oxooctanoic acid hydroxyamide]
- melting point: 149 to 150.5 °C

SMILES: O=C(CCCCCCC(=O)N1CCN(c2cccc(C(F)(F)F)c2)CC1)NO [PX118860, 8-Oxo-8-[4-(3-trifluoromethylphenyl)-piperazin-1-yl]-octanoic acid hydroxyamide]
- melting point: 126 to 128 °C

SMILES: O=C(/C=C/c1cccc(S(=O)(=O)N2CCN(C/C=C/c3ccccc3)CC2)c1)NO [PX118870, (E)-N-Hydroxy-3-[3-({4-[(E)-3-phenyl-2-propenyl]-1-piperazinyl}sulfonyl)phenyl]-2-propenamide]
- melting point: 178 °C

SMILES: COc1cccc(N2CCN(S(=O)(=O)c3cccc(/C=C/C(=O)NO)c3)CC2)c1 [PX118872, (E)-N-hydroxy-3-(3-{[4(3-methoxyphenyl)piperazinyl]sulfonyl}phenyl)-2-propenamide]
- melting point: 196 °C

SMILES: O=C(/C=C/c1cccc(S(=O)(=O)N2CCN(Cc3ccc4c(c3)OCO4)CC2)c1)NO [PX118873, (E)-3-(3-{[4-(1,3-Benzodioxol-5-ylmethyl)-1-piperazinyl]sulfonyl}-phenyl)-N-hydroxy-2-propenamide]
- melting point: 172 °C

SMILES: O=C(/C=C/c1cccc(S(=O)(=O)N2CCN(Cc3ccccc3)CC2)c1)NO [PX118874, (E)-3-{3-[(4-Benzyl-1-piperazinyl)sulfonyl]phenyl}-N-hydroxy-2-propenamide]
- melting point: 185 °C

SMILES: O=C(/C=C/c1cccc(S(=O)(=O)N2CCN(c3ccccc3F)CC2)c1)NO [PX118877, (E)-3-(3-{[4-(2-Fluorophenyl)-1-piperazinyl]sulfonyl}phenyl)-N-hydroxy-2-propenamide]
- melting point: 176 °C

SMILES: O=C(/C=C/c1cccc(S(=O)(=O)N2CCN(c3cccc(C(F)(F)F)c3)CC2)c1)NO [PX118878, (E)-N-Hydroxy-3-[3-({4-[3-(trifluoromethyl)phenyl]-1-piperazinyl}sulfonyl)phenyl]-2-propenamide]
- melting point: 173 °C

SMILES: O=C(/C=C/c1ccc(S(=O)(=O)N2CCN(c3ccccc3F)CC2)cc1)NO [PX118891, (E)-3-(4-{[4-(2-Fluorophenyl)-1-piperazinyl]sulfonyl}phenyl)-N-hydroxy-2-propenamide]
- melting point: 196 to 197 °C

SMILES: COc1cccc(N2CCN(S(=O)(=O)c3ccc(/C=C/C(=O)NO)cc3)CC2)c1 [PX118892, (E)-N-Hydroxy-3-(4-{[4-(3-methoxyphenyl)-1-piperazinyl]sulfonyl}phenyl)-2-propenamide]
- melting point: 199 to 200 °C

SMILES: O=C(/C=C/c1cccc(S(=O)(=O)N2CCN(c3ncccn3)CC2)c1)NO [PX118894, (E)-N-Hydroxy-3-(3{-[4-(2-pyrimidinyl)-1-piperazinyl]sulfonyl}-phenyl)-2-propenamide]
- melting point: 200 °C

SMILES: Cc1cccc(N2CCN(C(=O)CCCCCCC(=O)NO)CC2C)c1 (stereo not shown) [PX118899, 8-(3-Methyl-4-m-tolyl-piperazin-1-yl)-8-oxo octanoic acid hydroxyamide]
- melting point: 75 to 76 °C

SMILES: C/C(=N\O)c1ccc(N2CCN(C(=O)CCCCCCC(=O)NO)CC2)cc1 [PX118903, 8-{4-[4-(1-Hydroxyimino-ethyl)-phenyl]-piperazin-1-yl}-8-oxo octanoic acid hydroxyamide]
- melting point: 147 to 147.5 °C

SMILES: O=C(CCCCCCC(=O)N1CCN(CCc2ccc3ccccc3c2)CC1)NO [PX118908, 8-[4-(2-Naphthalen-2-yl-ethyl)-piperazin-1-yl]-8-oxo octanoic acid hydroxyamide]
- melting point: 118 to 120 °C

SMILES: O=C(CCCCCCC(=O)N1CCN(CC(c2ccccc2)c2ccccc2)CC1)NO [PX118909, 8-[4-(2,2-Diphenyl-ethyl)-piperazin-1-yl]-8-oxo octanoic acid hydroxyamide]
- melting point: 117 to 118 °C

SMILES: O=C(/C=C/c1cccc(S(=O)(=O)N2CCN(CC(c3ccccc3)c3ccccc3)CC2)c1)NO [PX118913, (E)-3-(3-{[4-(2,2-Diphenylethyl)-1-piperazinyl]sulfonyl}phenyl)-N-hydroxy-2-propenamide]
- melting point: 117 °C (dec.)

SMILES: O=C(/C=C/c1cccc(S(=O)(=O)N2CCN(CCc3ccc4ccccc4c3)CC2)c1)NO [PX118914, (E)-N-Hydroxy-3-[3-({4-[2-(2naphthyl)ethyl]-1-piperazinyl}sulfonyl)phenyl]-2-propenamide]
- melting point: 184 °C

SMILES: O=C(/C=C/c1ccc(S(=O)(=O)N2CCN(c3ccc([N+](=O)[O-])cc3)CC2)cc1)NO [PX118918, (E)-N-Hydroxy-3-(4-{[4-(4-nitrophenyl)-1-piperazinyl]sulfonyl}phenyl)-2-propenamide]
- melting point: 199 to 200 °C

SMILES: CN(C)c1ccc(CCN2CCN(C(=O)CCCCCCC(=O)NO)CC2)cc1 [PX118928, 8-{4-[4-(Dimethylamino)phenethyl]-1-piperazinyl}-N-hydroxy-8-oxooctanamide]
- melting point: 103 to 105 °C

SMILES: O=C(CCCCCCC(=O)N1CCN(C(=O)COc2ccc3ccccc3c2)CC1)NO [PX118929, N-Hydroxy-8-{4-[2-(2-naphthyloxy)acetyl]-1-piperazinyl}-8-oxooctanamide]
- melting point: 139 to 140.5 °C

SMILES: C=C(Cl)c1ccc(N2CCN(S(=O)(=O)c3cccc(/C=C/C(=O)NO)c3)CC2)cc1 [PX118933, (E)-3-[3-({4-[4-(1-Chlorovinyl)phenyl]-1-piperazinyl}sulfonyl)phenyl]-N-hydroxy-2-propenamide]
- melting point: 203 °C (dec.)

SMILES: O=C(/C=C/c1cccc(S(=O)(=O)N2CCN(CCOc3cccc4ccccc34)CC2)c1)NO [PX118934, (E)-N-Hydroxy-3-[3-({4-[2-(1-naphthyloxy)ethyl]-1-piperazinyl}-sulfonyl)phenyl]-2-propenamide]
- melting point: 178 °C

SMILES: O=C(/C=C/c1cccc(S(=O)(=O)N2CCN(CCOc3ccc4ccccc4c3)CC2)c1)NO [PX118935, (E)-N-Hydroxy-3-[3-({4-[2-(2-naphthyloxy)ethyl]-1-piperazinyl}-sulfonyl)phenyl]-2-propenamide]
- melting point: 130 °C

SMILES: O=C(/C=C/c1ccc(S(=O)(=O)N2CCN(c3cccc(C(F)(F)F)c3)CC2)cc1)NO [PX118937, (E)-N-Hydroxy-3-[4-({4-[3-(trifluoromethyl)phenyl]-1-piperazinyl}-sulfonyl)phenyl]-2-propenamide]
- melting point: 178 to 179 °C

SMILES: CN(C)c1ccc(CCN2CCN(S(=O)(=O)c3cccc(/C=C/C(=O)NO)c3)CC2)cc1 [PX118951, (E)-3-[3-({4-[4-(Dimethylamino)phenethyl]-1-piperazinyl}sulfonyl)phenyl]-N-hydroxy-2-propenamide]
- melting point: 189 °C

SMILES: O=C(/C=C/c1ccc(S(=O)(=O)N2CCN(C(c3ccc(F)cc3)c3ccc(F)cc3)CC2)cc1)NO [PX118965, (E)-3-[4-({4-[Bis(4-fluorophenyl)methyl]-1-piperazinyl}sulfonyl)phenyl]-N-hydroxy-2-propenamide]
- melting point: 125 to 126 °C

SMILES: O=C(CCCCCCC(=O)N1CCN(C(=O)Cc2csc3ccccc23)CC1)NO [PX118967, 8-{4-[2-(1-Benzothiophen-3-yl)acetyl]-1-piperazinyl}-N-hydroxy-8-oxooctanamide]
- melting point: 140 to 141 °C

SMILES: O=C(CCCCCC(=O)N1CCN(C(=O)CCc2c[nH]c3ccccc23)CC1)NO [PX118968, N-Hydroxy-7-{4-[3-(1H-indol-3-yl)propanoyl]-1-piperazinyl}-7-oxoheptanamide]
- melting point: 152.5 to 153.5 °C

SMILES: O=C(CCCCCC(=O)N1CCN(C(=O)c2c[nH]c3ccccc23)CC1)NO [PX118969, N-Hydroxy-7-[4-(1H-indol-3-ylcarbonyl)-1-piperazinyl]-7-oxoheptanamide]
- melting point: 86 to 88 °C

SMILES: O=C(CCCCCC(=O)N1CCN(CCCc2c[nH]c3ccccc23)CC1)NO [PX118970, N-Hydroxy-7-{4-[3-(1H-indol-3-yl)propyl]-1-piperazinyl}-7-oxoheptanamide]
- melting point: 165 to 166 °C

SMILES: O=C(/C=C/c1cccc(S(=O)(=O)N2CCN(c3ccc(Cl)c(Cl)c3)CC2)c1)NO [PX118971, (E)-3-(3-{[4-(3,4-Dichlorophenyl)-1-piperazinyl]sulfonyl}phenyl)-N-hydroxy-2-propenamide]
- melting point: 193 °C

SMILES: O=C(/C=C/c1cccc(S(=O)(=O)N2CCN(c3ccc(Cl)cc3)CC2)c1)NO [PX118972, (E)-3-(3-{[4-(4-Chlorophenyl)-1-piperazinyl]sulfonyl}phenyl)-N-hydroxy-2-propenamide]
- melting point: 215 °C

SMILES: O=C(CCCCCC(=O)N1CCN(Cc2c[nH]c3ccccc23)CC1)NO [PX118978, N-Hydroxy-7-[4-(1H-indol-3-ylmethyl)-1-piperazinyl]-7-oxoheptanamide]
- melting point: 65 to 67 °C

SMILES: O=C(CCCCCC(=O)N1CCN(c2ccc(Cl)c(Cl)c2)CC1)NO [PX118989, 7-[4-(3,4-Dichlorophenyl)-1-piperazinyl]-N-hydroxy-7-oxoheptanamide]
- melting point: 125 to 126 °C

SMILES: O=C(CCCCCC(=O)N1CCN(c2ccc(F)cc2)CC1)NO [PX118990, 7-[4-(4-Fluorophenyl)-1-piperazinyl]-N-hydroxy-7-oxoheptanamide]
- melting point: 119 to 120 °C

SMILES: O=C(CCCCCC(=O)N1CCN(c2ccc(Cl)cc2)CC1)NO [PX118991, 7-[4-(4-Chlorophenyl)-1-piperazinyl]-N-hydroxy-7-oxoheptanamide]
- melting point: 119 to 121 °C

SMILES: Cc1ccc(N2CCN(C(=O)CCCCCC(=O)NO)CC2)cc1C [PX118994, 7-[4-(3,4-Dimethylphenyl)-1-piperazinyl]-N-hydroxy-7-oxoheptanamide]
- melting point: 119.5 to 120.5 °C
